Data on 15 molecules can be found in PubChem BioAssay (NCI).

Among the test systems are HCC-2998 colon; HL-60(TB) leukemia; RPMI-8226 leukemia; CAKI-1 renal; MOLT-4 leukemia; NCI-H460 lung; HT29 colon; 786-0 renal; HS 578T breast.
Common to all, as to assay: NCI anticancer screen, dose series, 48 h

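Following 48 hours of exposure in 96-well plates, responses at five concentrations were used to interpolate endpoints linearly. Here, GI50 denotes the concentration required for 50% inhibition of growth. TGI: concentration producing complete growth inhibition.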

Take `COc1cc(/C=C/C(=O)c2sc(NNC(C)=O)nc2C)ccc1O`: the TGI in the assay with HCC-2998 colon, in the assay on HL-60(TB) leukemia, with RPMI-8226 leukemia, in the assay on CAKI-1 renal, in the assay with MOLT-4 leukemia and in the assay on NCI-H460 lung was over 100 µM in each case. In addition, the TGI with HT29 colon and with 786-0 renal was over 100 µM each time.

For `C=C1CCc2occ(C)c2C2C1C1=C(CC(C)C1=O)C1OC12C` (stereo not given), the TGI in the assay with HCC-2998 colon, in the assay on MOLT-4 leukemia, in the assay with NCI-H460 lung, in the assay with HT29 colon and in the assay with 786-0 renal was over 100 µM each time.

For the molecule `COc1ccc(-c2nn(-c3cccc(Cl)c3)cc2-c2cc(-c3ccccc3)nc(N)n2)cc1`, the GI50 in the assay on HCC-2998 colon is 2.25 µM; with HS 578T breast, 3.03 µM; in the assay with HL-60(TB) leukemia, 2.53 µM; in the assay on RPMI-8226 leukemia, 2.65 µM; with CAKI-1 renal, 1.77 µM; in the assay on MOLT-4 leukemia, 2.03 µM. In addition, the GI50 with HT29 colon is 2.07 µM; with 786-0 renal it was 4.94 µM. In addition, the TGI in the assay on HCC-2998 colon was 4.53 µM; with HS 578T breast, 18.4 µM; in the assay with HL-60(TB) leukemia it was 6.21 µM; in the assay on RPMI-8226 leukemia it was 9.17 µM; with CAKI-1 renal it was 10.7 µM; with MOLT-4 leukemia it was 5.61 µM. In addition, the TGI worked out at 4.32 µM with HT29 colon and 26.4 µM in the assay on 786-0 renal.

In the case of `C=CCNC(=O)NCCCC(NC(C)=O)C(=O)NCc1ccccc1` (stereo not given), the TGI with HL-60(TB) leukemia, in the assay with RPMI-8226 leukemia, in the assay on CAKI-1 renal, with MOLT-4 leukemia, in the assay with NCI-H460 lung and in the assay with HT29 colon was over 100 µM in each case. The TGI in the assay on 786-0 renal was over 100 µM.

Turning to `C1CCOC2(CCC3(CC2)OCCCCO3)OC1`, the TGI in the assay on HCC-2998 colon, in the assay on HL-60(TB) leukemia, in the assay on RPMI-8226 leukemia, with CAKI-1 renal, in the assay on MOLT-4 leukemia and in the assay with NCI-H460 lung was over 100 µM in each case. Further, the TGI in the assay with 786-0 renal is over 100 µM.

Consider `CC(=O)NC1CC2Oc3ccc(C)cc3C(C)(O2)C1O` (stereo not given), for which the TGI in the assay on HL-60(TB) leukemia, in the assay with RPMI-8226 leukemia, in the assay on MOLT-4 leukemia, with NCI-H460 lung, with HT29 colon and in the assay on 786-0 renal was over 100 µM each time.

On to `C=CCC(OCCOCC)c1cc(OCCOCC)ccc1OC` (stereo not given), for which the TGI in the assay on HCC-2998 colon, in the assay with HL-60(TB) leukemia, in the assay with RPMI-8226 leukemia, in the assay with CAKI-1 renal, in the assay on MOLT-4 leukemia and with NCI-H460 lung was over 100 µM each time. Besides, the TGI with HT29 colon and in the assay with 786-0 renal was over 100 µM in each case.

As to `C/C=C/C=C/CCCCCCCCCCCCCC1(OC)C=CC(CC(=O)OC)OO1` (stereo not given), the GI50 is 3.5 µM with HCC-2998 colon; 1.6 µM in the assay on CAKI-1 renal; 7.97 µM in the assay on MOLT-4 leukemia; 1.82 µM with HT29 colon; 1.75 µM with 786-0 renal. Besides, the TGI in the assay with HCC-2998 colon is 9.99 µM; in the assay with HL-60(TB) leukemia it was 18.4 µM; in the assay on RPMI-8226 leukemia, 46 µM; with CAKI-1 renal it was 3.44 µM; with MOLT-4 leukemia, 33.8 µM; with NCI-H460 lung it was 29.4 µM. In addition, the TGI with HT29 colon was found to be 3.43 µM; with 786-0 renal, 3.51 µM.

As to `C[C@@H](NC1CCC[C@H]1O)c1ccccc1` (stereo not given in full), the TGI with HCC-2998 colon, in the assay on HL-60(TB) leukemia, in the assay with RPMI-8226 leukemia, in the assay with CAKI-1 renal, in the assay on MOLT-4 leukemia and in the assay on NCI-H460 lung was over 100 µM in each case. Moreover, the TGI in the assay with HT29 colon and with 786-0 renal was over 100 µM each time.

For `CC1(C)CC[C@]2(C(=O)N3CCOCC3)CC[C@]3(C)C(=CC[C@@H]4[C@@]5(C)C/C(=C/c6ccncc6)C(=O)C(C)(C)[C@@H]5CC[C@]43C)[C@@H]2C1`, the GI50 in the assay on HCC-2998 colon is 1.66 µM; with HS 578T breast it was 2.56 µM; in the assay with HL-60(TB) leukemia, 1.16 µM; in the assay with RPMI-8226 leukemia, 0.476 µM; in the assay with CAKI-1 renal, 1.07 µM; with MOLT-4 leukemia it was 0.787 µM. Further, the results for the GI50 in the assay on NCI-H460 lung, with HT29 colon and in the assay on 786-0 renal were 1.32 µM, 0.912 µM and 1.66 µM, respectively. Besides, the TGI was 7.82 µM with HCC-2998 colon; over 100 µM in the assay with HS 578T breast; 3.96 µM in the assay on HL-60(TB) leukemia; 3.36 µM with RPMI-8226 leukemia; over 100 µM in the assay on CAKI-1 renal; over 100 µM in the assay on MOLT-4 leukemia. Further, the TGI was determined as 4.17 µM in the assay on NCI-H460 lung, 54.5 µM in the assay on HT29 colon and 12.4 µM in the assay with 786-0 renal.

For `O=C1NC2C=CN(Cc3ccccc3)C=C2C(=O)N2CCCC12` (stereo not given), the TGI in the assay on HCC-2998 colon, in the assay with HL-60(TB) leukemia, with CAKI-1 renal, with MOLT-4 leukemia, in the assay on NCI-H460 lung and in the assay on HT29 colon was over 100 µM each time. In addition, the TGI in the assay with 786-0 renal is over 100 µM.

For the molecule `CC(C)C1COC(c2cccc(C3=N[C@@H](C(C)C)CO3)n2)=N1` (stereo not given in full), the TGI in the assay with HCC-2998 colon, in the assay with HL-60(TB) leukemia, with RPMI-8226 leukemia, in the assay on CAKI-1 renal, in the assay on MOLT-4 leukemia and in the assay with NCI-H460 lung was over 100 µM throughout. Besides, the TGI in the assay on HT29 colon and in the assay on 786-0 renal was over 100 µM throughout.

Regarding `CCN(CC)CC(C(=O)Nc1c(C)cccc1C)/C(C)=N\NC(=O)c1ccncc1` (stereo not given), the TGI with HCC-2998 colon, in the assay with CAKI-1 renal, in the assay on MOLT-4 leukemia, in the assay with NCI-H460 lung, in the assay on HT29 colon and in the assay with 786-0 renal was over 100 µM throughout.

As to `CCC1CCc2c(OC)ccc(OCC(=O)O)c2C1=O` (stereo not given), the TGI in the assay with HCC-2998 colon, in the assay with HL-60(TB) leukemia, with RPMI-8226 leukemia, in the assay on MOLT-4 leukemia and in the assay with 786-0 renal was over 100 µM in each case.

`CS/C(=N\c1nccs1)NC(=O)c1cccc(Cl)c1`: the TGI with HCC-2998 colon was over 100 µM; in the assay with HL-60(TB) leukemia, over 100 µM; in the assay with RPMI-8226 leukemia, over 100 µM; in the assay with CAKI-1 renal it was over 100 µM; in the assay on MOLT-4 leukemia it was 89.6 µM; in the assay with NCI-H460 lung it was over 100 µM. Moreover, the TGI in the assay with HT29 colon and in the assay on 786-0 renal was over 100 µM in each case.
